Earlier results in patent US7838281B2, “Sulfide bath” (Soothing Sulfur Spas, LLC, priority 2007, dated 2010).

Conditions: aqueous solution

Structure (SMILES): S [HS^−]
- pK for the HS^−/S^−2: 14

Structure (SMILES): O=C(O)O [HCO3^−]
- pK for the HCO3^−/CO2: 6.2
